Laboratory results: patent publication US20240335505A1, “PRODUCTS AND METHODS FOR PROMOTING MYOGENESIS” (Ecole Polytechnique Federale de Lausanne (EPFL), priority 2021, published 2024)

Assays:
Tead1 = molecular target: T1, Tead1 (Mus musculus, UniProt P30051); experiment: C2C12 myoblast differentiation after disruption of Tead1 function (siRNA or Verteporfin); type: cell-based
T1 construct: endogenous in cells; host or cells: C2C12 mouse myoblasts (ATCC CRL-1772)
Procedure: Cell culture. The C2C12 mouse myoblast cell line was obtained from the American Type Culture Collection (CRL-1772TM). C2C12 and HEK293T cells (CRL-3216™, ATCCR) were cultured in growth medium consisting of Dulbecco's modified Eagle's medium (Gibco, 41966-029), 20% Fetal Bovine Serum (Gibco, 10270-106) and 100 U/mL penicillin and […] streptomycin (Gibco, 15140-122). Differentiation of Cytor/CYTOR overexpressing cells or Tead1 silenced cells were assessed in culture medium. Human skeletal muscle myoblasts (Lonza, Switzerland) were cultured in DMEM/F12 Glutamax (31331093, Gibco) supplemented with 20% FBS (Gibco, 10270-106) and 1% penicillin/streptomycin (15140-122, Gibco). Human skeletal muscle myoblasts from young, old and DMD donors were obtained from the Groupement Hospitalier Est (CBC BioTec, Centre de Ressources Biologique) and cultured in Ham F10 medium (11550043, Thermo Fisher) with 12% FBS (10270-106, Gibco) and 1% penicillin/streptomycin (Gibco, 15140-122). Muscle cell differentiation was achieved by substituting FBS with 2% horse serum (Gibco, 16050-122). For detachment Trypsin-EDTA 0.05% (25300-062, Gibco) was used for all cell lines. All cells were maintained at 37° C. and 5% CO2. Cell lines were continuously tested for mycoplasma contamination.
Cell transfection and transduction. Cell transfections were done using TransiT (Mirus) according to the manufacturer's protocol with a 3:1 ratio of transfection agent to DNA. 24 well plates were transfected with 150 ng DNA, 12 well plates with 300 ng DNA, and 6 well plates with 1 ug DNA. To transfect 25 nM GapmeR or siRNA in C2C12, LipofectamineR RNAiMAX (Thermo Scientific, 13778100) was used following manufacturer's instructions. […]
Immunocytochemistry. […] The myofusion index was calculated as the ratio of nuclei within myotubes to total nuclei. Myotube diameter was measured for 10 randomly chosen myotubes per image. Myotube area was calculated as the total area covered by myotubes. […]

C. elegans = experiment: Muscle function and morphology in aged C. elegans; type: in vivo; conditions: day 15 of adulthood; verteporfin 10 uM from L4 stage; egl-44 RNAi by maternal treatment (FIG. 19A-F)
Procedure: Transgenic Caenorhabditis Elegans. C. elegans strains were cultured at 20° C. on nematode growth medium (NGM) agar plates seeded with E. coli strain OP50 unless stated otherwise. Strains used in this study were the wild-type Bristol N2 and COP2054. N2 strain was provided by the Caenorhabditis Genetics Center (University of Minnesota). For RNAi experiments, worms were exposed to egl-44 RNAi or an empty vector control plasmid using maternal treatment to ensure robust knock down of the investigated gene. Verteporfin was dissolved in DMSO, and used at a final concentration of 10 uM. Worms were exposed to verteporfin starting from L4 stage. Verteporfin or DMSO was added to agar before preparing plates. To ensure a permanent exposure to the compound, plates were changed twice a week. The COP2054 worm strain expressing human CYTOR was generated by a custom transgenic service (Knudra Transgenics, Salt Lake City, UT). Briefly, Mosi-mediated Single Copy Insertion (MosSCI) started with the construction of myo3p::CYTOR::tbb2u, where the myo3p promoter and tbb-2 3′-UTR were taken from the N2 genome, and CYTOR was synthesized with codon and intron optimization for C. elegans. […]
C. […] 45 to 60 worms per condition were manually scored for paralysis after poking. Worms that were unable to respond to any repeated stimulation were scored as dead. […]

T1 sequence (P30051 whole entry): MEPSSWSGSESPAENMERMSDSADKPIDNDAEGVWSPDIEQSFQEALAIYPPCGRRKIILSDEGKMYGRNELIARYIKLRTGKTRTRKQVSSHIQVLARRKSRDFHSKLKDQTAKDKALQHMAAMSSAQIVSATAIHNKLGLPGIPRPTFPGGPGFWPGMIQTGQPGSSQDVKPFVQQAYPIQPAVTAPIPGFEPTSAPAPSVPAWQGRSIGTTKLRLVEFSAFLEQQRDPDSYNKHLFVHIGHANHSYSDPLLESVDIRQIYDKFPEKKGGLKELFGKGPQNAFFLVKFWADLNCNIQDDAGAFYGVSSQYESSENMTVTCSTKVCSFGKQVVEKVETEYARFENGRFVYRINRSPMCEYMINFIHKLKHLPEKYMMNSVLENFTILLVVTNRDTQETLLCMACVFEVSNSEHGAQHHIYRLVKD

## Verteporfin
Tead1; C2C12 myoblasts (FIG. 18B)
  myotube area: increase myotube area
Tead1; C2C12 myoblasts (FIG. 18C)
  myofusion: increase
Tead1; C2C12 myoblasts (FIG. 18D)
  expression of type II myosin isoforms: induce the expression of type II
C. elegans
  function and morphology of aged C. elegans (movement, speed, activity, paralysis, death): phenocopied the beneficial effect of Cytor
